From publication PMC6300691, “Enhancement of Heat Stability and Kinetic Parameters of the Maize Endosperm ADP-Glucose Pyrophosphorylase by Mutagenesis of Amino Acids in the Small Subunit With High B Factors” (Frontiers in Plant Science, 2018)
Residue numbers refer to the chain shown, from its start. Like-named read-outs stand apart in the source and are kept apart here.

Key:
[1] = target: T1, K403E (Zea mays, UniProt P55241+Q947C0, K403E); assay: Activation constant from initial rates with varied 3-PGA (0-1 mM) at 2 mM ATP and 2 mM G-1-P, pH 7.4, 15 mM MgCl2, fitted to V = Vmin + Vmax*X/(Ka + X).; assay type: biochemical
T1 construct: BT2 variant with wild type SH2, E. coli, purified
Description: (§1) All reactions were developed as above.

[2] = target: T2, R331K (Zea mays, UniProt P55241+Q947C0, R331K); assay: as above; assay type: biochemical
T2 construct: BT2 variant with wild type SH2, E. coli, purified
Description: as §1

[3] = target: T3, SH2-ISM/BT2-BF (Zea mays, UniProt P55241+Q947C0, Q96G/E123G/D161G/R331K/K402R/A443R); assay: as above; assay type: biochemical
T3 construct: SH2-ISM co-expressed with BT2-BF, E. coli, purified
T3 sequence (Q947C0 1-475 E123G/R331K/K402R): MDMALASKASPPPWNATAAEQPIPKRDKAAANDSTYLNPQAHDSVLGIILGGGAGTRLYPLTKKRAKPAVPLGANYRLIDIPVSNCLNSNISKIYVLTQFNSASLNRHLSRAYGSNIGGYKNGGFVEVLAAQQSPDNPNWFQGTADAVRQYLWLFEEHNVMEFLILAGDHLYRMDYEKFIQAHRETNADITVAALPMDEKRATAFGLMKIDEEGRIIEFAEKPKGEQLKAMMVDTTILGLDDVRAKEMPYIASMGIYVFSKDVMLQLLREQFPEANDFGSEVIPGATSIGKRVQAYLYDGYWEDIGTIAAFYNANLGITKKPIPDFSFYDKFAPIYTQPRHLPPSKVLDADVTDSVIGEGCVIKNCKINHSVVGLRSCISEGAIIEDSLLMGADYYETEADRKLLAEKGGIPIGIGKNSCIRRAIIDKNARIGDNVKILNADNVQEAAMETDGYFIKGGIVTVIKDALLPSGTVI
T3 sequence (P55241 46-516 Q96G/D161G/A443R): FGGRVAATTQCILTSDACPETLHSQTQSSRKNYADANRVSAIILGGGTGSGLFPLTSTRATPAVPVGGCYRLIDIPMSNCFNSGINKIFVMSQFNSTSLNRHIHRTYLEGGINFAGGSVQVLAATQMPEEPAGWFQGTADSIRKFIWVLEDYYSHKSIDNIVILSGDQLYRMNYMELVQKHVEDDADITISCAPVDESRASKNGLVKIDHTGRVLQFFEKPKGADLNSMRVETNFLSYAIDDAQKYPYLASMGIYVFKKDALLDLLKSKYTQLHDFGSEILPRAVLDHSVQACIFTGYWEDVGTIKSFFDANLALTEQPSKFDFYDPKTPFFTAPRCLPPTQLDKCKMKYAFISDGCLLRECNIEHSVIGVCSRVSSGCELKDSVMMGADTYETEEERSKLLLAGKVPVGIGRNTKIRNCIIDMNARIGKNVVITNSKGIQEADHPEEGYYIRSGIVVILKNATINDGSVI
Description: as §1

[4] = target: T4, SH2-ISM (Zea mays, UniProt P55241+Q947C0, Q96G/D161G/A443R); assay: Pi inhibition study without 3-PGA, ATP varied (0.1-3 mM) at fixed Pi levels (10-30 mM) and sub-saturating G-1-P (1 mM), fit to mixed-type inhibition equations.; assay type: biochemical; conditions: read-out: Km (mM), varied substrate ATP, Pi inhibition in the absence of 3-PGA
T4 construct: SH2-ISM with wild type BT2 (SH2-ISM/BT2-WT), E. coli, purified
T4 sequence (Q947C0 1-475): T3 sequence (Q947C0 1-475 E123G/R331K/K402R) with G123E, K331R, R402K
T4 sequence (P55241 46-516 Q96G/D161G/A443R): T3 sequence (P55241 46-516 Q96G/D161G/A443R)
Description: Pi inhibition was carried out in both the presence and absence of 3-PGA with the Pi and substrate concentrations listed below.
Pi inhibition patterns in the presence and absence of 3PGA were also determined. Pi inhibition patterns were obtained by varying one substrate at several fixed concentrations of Pi, while holding the co-substrate at constant sub-saturating levels.

[5] = target: T5, wt (SH2-WT/BT2-WT) (Zea mays, UniProt P55241+Q947C0); conditions: read-out: ATP Km (absence of 3-PGA)
Description: (§2) Activity in the absence of the activator 3PGA was examined. While 3PGA is a noted activator for plant AGPase, the mechanism of activation differs for the various AGPases. […] Thus, the term “activation fold” in the literature is merely an activity reported at single fixed substrate concentrations.
(§3) The small subunit mutant, MP, contains the first 198 amino acids of the small subunit of the maize endosperm enzyme and the last 277 amino acids from the potato tuber enzyme resulting in thirty-three amino acid sites that differ from the maize endosperm enzyme ([Cross et al., 2004]).

[6] = target: K403R (Zea mays, UniProt P55241+Q947C0, K403R); conditions: read-out: KM ATP
Description: (§4) All V versus S plots were fitted using non-linear regression analysis and the following equation, v = VmaxS/(Km + S), where v is the measured velocity, Vmax is the maximum velocity, S is the substrate concentration.

[7] = target: T5, wt (SH2-WT/BT2-WT); conditions: read-out: KM ATP
Description: as §4

[8] = target: T6, SH2-E (Zea mays, UniProt P55241+Q947C0, N131R/T142F/A160T/Q261S/A396S/V416I/C424V/S444A); assay: Initial-rate assay without 3-PGA, ATP and G-1-P both varied (0.01-10 mM and 0.1-25 mM), global fit to a sequential mechanism.; assay type: biochemical; conditions: read-out: ATP Km (absence of 3-PGA)
T6 construct: SH2-E with wild type BT2 (SH2-E/BT2-WT), E. coli, purified
T6 sequence (Q947C0 1-475): T3 sequence (Q947C0 1-475 E123G/R331K/K402R) with G123E, K331R, R402K
T6 sequence (P55241 46-516 N131R/T142F/A160T/Q261S/A396S/V416I/C424V/S444A): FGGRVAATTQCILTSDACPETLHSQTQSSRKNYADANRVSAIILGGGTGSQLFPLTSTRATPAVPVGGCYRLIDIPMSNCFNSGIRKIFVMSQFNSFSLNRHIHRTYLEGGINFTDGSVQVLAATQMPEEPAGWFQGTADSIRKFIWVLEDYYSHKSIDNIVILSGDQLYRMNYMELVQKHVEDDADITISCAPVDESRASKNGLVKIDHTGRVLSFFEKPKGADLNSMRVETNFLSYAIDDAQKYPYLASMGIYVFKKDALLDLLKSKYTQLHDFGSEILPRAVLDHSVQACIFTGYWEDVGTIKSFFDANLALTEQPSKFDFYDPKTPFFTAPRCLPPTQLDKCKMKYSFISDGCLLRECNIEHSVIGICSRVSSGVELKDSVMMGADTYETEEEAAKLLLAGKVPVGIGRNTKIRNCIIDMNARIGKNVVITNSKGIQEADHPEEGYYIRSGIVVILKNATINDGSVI
Description: as §2, §3

[9] = target: T4, SH2-ISM; assay: as above; assay type: biochemical; conditions: read-out: ATP Km (absence of 3-PGA)
Description: as §2, §3

T5 sequence (Q947C0 1-475): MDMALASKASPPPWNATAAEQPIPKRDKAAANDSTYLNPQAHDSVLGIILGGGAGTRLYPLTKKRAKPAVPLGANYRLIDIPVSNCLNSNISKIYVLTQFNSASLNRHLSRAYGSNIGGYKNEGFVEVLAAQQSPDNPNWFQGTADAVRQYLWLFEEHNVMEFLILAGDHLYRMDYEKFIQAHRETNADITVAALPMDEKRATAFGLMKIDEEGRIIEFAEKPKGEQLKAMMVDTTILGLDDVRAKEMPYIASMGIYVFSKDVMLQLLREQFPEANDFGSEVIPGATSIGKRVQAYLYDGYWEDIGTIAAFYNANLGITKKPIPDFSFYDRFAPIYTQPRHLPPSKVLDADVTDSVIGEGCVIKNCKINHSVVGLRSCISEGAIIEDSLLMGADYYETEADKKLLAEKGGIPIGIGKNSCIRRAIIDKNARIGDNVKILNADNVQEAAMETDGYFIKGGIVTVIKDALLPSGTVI
T5 sequence (P55241 46-516): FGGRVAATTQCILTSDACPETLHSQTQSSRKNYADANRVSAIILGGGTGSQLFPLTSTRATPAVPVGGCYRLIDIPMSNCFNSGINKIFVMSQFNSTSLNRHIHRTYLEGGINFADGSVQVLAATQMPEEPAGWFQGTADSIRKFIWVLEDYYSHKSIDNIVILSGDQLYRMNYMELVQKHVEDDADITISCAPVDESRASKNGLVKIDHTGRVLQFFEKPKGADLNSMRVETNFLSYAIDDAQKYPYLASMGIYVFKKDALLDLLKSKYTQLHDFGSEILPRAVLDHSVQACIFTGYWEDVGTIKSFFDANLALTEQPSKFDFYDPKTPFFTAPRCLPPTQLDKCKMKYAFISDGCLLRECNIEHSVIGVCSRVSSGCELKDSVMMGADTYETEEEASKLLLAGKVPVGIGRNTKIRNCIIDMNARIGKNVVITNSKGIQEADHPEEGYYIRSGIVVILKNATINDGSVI
T2 sequence (Q947C0 1-475 R331K): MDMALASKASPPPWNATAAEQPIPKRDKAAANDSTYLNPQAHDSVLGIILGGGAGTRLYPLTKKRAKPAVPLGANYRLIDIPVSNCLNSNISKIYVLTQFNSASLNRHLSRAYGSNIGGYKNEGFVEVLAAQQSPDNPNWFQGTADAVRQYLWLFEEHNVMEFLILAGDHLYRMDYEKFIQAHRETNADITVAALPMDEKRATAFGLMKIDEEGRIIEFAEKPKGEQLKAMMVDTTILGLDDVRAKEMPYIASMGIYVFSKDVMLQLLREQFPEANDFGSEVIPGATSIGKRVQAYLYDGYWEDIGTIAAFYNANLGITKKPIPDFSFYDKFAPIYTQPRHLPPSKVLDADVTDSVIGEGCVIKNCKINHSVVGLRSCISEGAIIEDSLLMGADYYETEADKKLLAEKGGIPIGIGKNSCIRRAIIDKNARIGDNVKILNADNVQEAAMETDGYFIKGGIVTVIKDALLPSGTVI
T2 sequence (P55241 46-516): as the sequence (P55241 46-516) above
Sequence of K403R (Q947C0 1-475 K403R): as the sequence (Q947C0 1-475 R331K) above, with K331R, K403R counted along it
Sequence of K403R (P55241 46-516): as the sequence (P55241 46-516) above
T1 sequence (Q947C0 1-475 K403E): as the sequence (Q947C0 1-475 R331K) above, with K331R, K403E counted along it
T1 sequence (P55241 46-516): as the sequence (P55241 46-516) above

Structure (SMILES) | 3-PGA Ka (activation constant) [1] | 3-PGA Ka (activation constant) [2] | 3-PGA Ka (activation constant) [3] | Km [4] [mM] | Km [5] [mM] | Km [6] [µM] | Km [7] [µM] | Km [8] [mM] | Km [9] [µM]
O=C(O)[C@H](O)COP(=O)(O)O [3-PGA, 3-phosphoglycerate (3-phosphoglyceric acid)] | 0.14 ± 0.015 | 0.07 ± 0.008 | 0.23 ± 0.11 |  |  |  |  |  | 
Nc1ncnc2c1ncn2[C@@H]1O[C@H](COP(=O)(O)OP(=O)(O)OP(=O)(O)O)[C@@H](O)[C@H]1O [ATP, adenosine 5'-triphosphate] |  |  |  | 0.54 ± 0.057 | 4 | 75 ± 13 | 75 ± 18 | 2.5 ± 0.43 | 100 ± 48
